Measured values taken from US6482949B1, “Colormetric sensor compositions and methods” (priority 1999, dated 2002).

Key:
[1] = Colorimetric assay: visual color change in solution on addition of fluoride anion; conditions: in solution (dichloromethane), naked eye
From the text: (§1) Nonetheless, even with these control systems the addition of tetrabutylammonium salts of various anions (F^−, Cl^− and H2PO4^−), gave rise to results that were quite interesting. […] Such effects can be rationalized in terms of the electron withdrawing nature of the two carbonyl groups, which serve to pull the electrons from the pyrrole units and thus act to increase the acidity of the pyrrolic NH protons. As a result, hydrogen bonding interactions with F^− are favored. In the particular case of inorganic phosphate, we speculate that the two carbonyl groups may also be involved in binding, stabilizing the complex via ancillary hydrogen bonding interactions involving the two HOP-phosphate protons.
Unfortunately, the fluorescence quantum yield of 10 is low.
Using 2,3-dipyrrol-2′yl-5,6dicyanopyrazine (preparation is described in Example 30) as a sensing compound, a vivid yellow-to-red color change in solution observed upon addition of fluoride ion verifies that the quinoxaline backbone is not essential for chemical sensing in this family of compounds. This is consistent with the theory that changes in orbital overlap between the pi systems of conjugated bridging unit and the pyrrole rings account for the sensitivity of the sensing elements to analyte species.
In order to understand more fully the above results, studies were performed to map out the mode of fluoride anion binding. Firstly, it was verified that two pyrrolic nitrogens are required to observe the anion-induced color change. Toward this end, the mono protected 2,3-dipyrrylquinoxaline 12 was prepared by reacting 0.8 equivalents of SEMCl with one equivalent of 2,3-dipyrrylquinoxaline.

[2] = Anion binding constants (Ka) by fluorescence quenching / UV-vis absorbance titration, chloride; conditions: dichloromethane; for Anion binding constant (Ka), Cl^−: 1 by fluorescence quenching, 10 by UV-vis absorbance titration at 341 nm, errors ± 10%, average of 2-4 trials
From the text: (§2) The conclusion that 1 binds fluoride anion in dichloromethane solution was further supported by mass spectrometric analyses and titration experiments made using UV-visible absorption and fluorescence emission methods (Tables 1 and 2). The latter studies, which provided Ka values (Tables 1 and 2), were complemented by molar ratio analyses (Job plots) with 1:1 binding stoichiometries observed in all cases.
as §1

[3] = Anion binding constants (Ka) by fluorescence quenching / UV-vis absorbance titration, fluoride; conditions: for Anion binding constant (Ka), F^−: 1 by fluorescence quenching (λex 412 nm), 10 by UV-vis absorbance titration at 341 nm, errors ± 10%, average of 2-4 trials; for affinity constant (Ka) for F^− binding, rounded: in dichloromethane
From the text: as §2, §1

[4] = Anion binding constants (Ka) by fluorescence quenching / UV-vis absorbance titration, dihydrogen phosphate; conditions: dichloromethane; for Anion binding constant (Ka), H2PO4^−: 1 by fluorescence quenching, 10 by UV-vis absorbance titration at 341 nm, errors ± 10%, average of 2-4 trials
From the text: as §2, §1

Row | Anion binding constant (Ka), Cl^− [2] | Anion binding constant (Ka), F^− ([3]; dichloromethane) | affinity constant (Ka) for F^− binding, rounded [3] | Anion binding constant (Ka), H2PO4^− [4] | SMILES | fluoride anion-induced color change [1] | change in the absorbance or emission spectra on addition of Cl^− ([2]; tetrabutylammonium salt) | change in the absorbance or emission spectra on addition of F^− ([3]; dichloromethane, tetrabutylammonium salt) | change in the absorbance or emission spectra on addition of H2PO4^− ([4]; tetrabutylammonium salt)
1 |  |  |  |  | N#Cc1nc(-c2ccc[nH]2)c(-c2ccc[nH]2)nc1C#N [2,3-dipyrrol-2′yl-5,6dicyanopyrazine, 2,3-dipyrrol-2′yl-5,6-dicyanopyrazine] | yellow-to-red |  |  | 
2 | <50 M⁻¹ | 2,300 M^−1 | 2000 M⁻¹ | <50 M⁻¹ | COc1cc2nc(-c3ccc[nH]3)c(-c3ccc[nH]3)nc2cc1OC [compound 2, 2,3-dipyrrol-2′-yl-6,7-dimethoxyquinoxaline] | hardly “works” at all |  |  | 
3 | 45 M⁻¹ | 117,000 M^−1 | ~10^5 M^−1 | 55 M⁻¹ | O=[N+]([O-])c1cc2nc(-c3ccc[nH]3)c(-c3ccc[nH]3)nc2cc1[N+](=O)[O-] [compound 3, 2,3-dipyrrol-2′-yl-6,7-dinitroquinoxaline] |  |  |  | 
4 | 45 M⁻¹ | 118,000 M^−1 | ~10^5 M^−1 | 80 M⁻¹ | O=[N+]([O-])c1ccc2nc(-c3ccc[nH]3)c(-c3ccc[nH]3)nc2c1 [compound 7, 6-nitro-2,3-dipyrrylquinoxaline] | yellow to purple |  |  | 
5 |  |  |  |  | c1ccc2nccnc2c1 [compound 11, quinoxaline, reference compound] |  | did not induce any significant change in the absorbance or emission spectra | did not induce any significant change in the absorbance or emission spectra | did not induce any significant change in the absorbance or emission spectra

Row | SMILES | Anion binding constant (Ka), Cl^− [2] | Anion binding constant (Ka), F^− ([3]; dichloromethane) | affinity constant (Ka) for F^− binding, rounded [3] | Anion binding constant (Ka), H2PO4^− [4] | fluoride anion-induced color change [1] | change in the absorbance or emission spectra on addition of Cl^− ([2]; tetrabutylammonium salt) | change in the absorbance or emission spectra on addition of F^− ([3]; dichloromethane, tetrabutylammonium salt) | change in the absorbance or emission spectra on addition of H2PO4^− ([4]; tetrabutylammonium salt)
6 | c1c[nH]c(-c2nc3ccccc3nc2-c2ccc[nH]2)c1 [compound 1, 2,3-dipyrrylquinoxaline] | 50 M⁻¹ | 18,200 M^−1 | 20000 M⁻¹ | 60 M⁻¹ | yellow to orange |  |  | 
7 | C[Si](C)(C)CCOCn1cccc1-c1nc2ccccc2nc1-c1ccc[nH]1 [compound 12] | <50 M⁻¹ | 2,300 M^−1 |  | <50 M⁻¹ | no color change |  |  | 
